Laboratory results from PubChem BioAssay (NCI).
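How tested: cells in 96-well plates exposed to compound for 48 hours at five concentrations. At the GI50, growth is halved. TGI: concentration producing complete growth inhibition.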

Assays:
Experiment in all cases: inhibition of tumour cell growth, NCI panel, 48 h
[1] = test system: BT-549 breast
[2] = test system: 786-0 renal
[3] = test system: HS 578T breast
[4] = test system: HT29 colon
[5] = test system: K-562 leukemia
[6] = test system: COLO 205 colon
[7] = test system: PC-3 prostate
[8] = test system: NCI-H226 lung
[9] = test system: SF-539 CNS
[10] = test system: HL-60(TB) leukemia
[11] = test system: IGROV1 ovarian
[12] = test system: SW-620 colon
[13] = test system: SF-268 CNS
[14] = test system: RXF 393 renal
[15] = test system: SF-295 CNS
[16] = test system: SN12C renal
[17] = test system: MDA-MB-468 breast
[18] = test system: TK-10 renal
[19] = test system: U251 CNS
[20] = test system: LOX IMVI melanoma
[21] = test system: MALME-3M melanoma
[22] = test system: A498 renal
[23] = test system: OVCAR-4 ovarian
[24] = test system: UACC-257 melanoma
[25] = test system: ACHN renal
[26] = test system: NCI-H460 lung
[27] = test system: UO-31 renal
[28] = test system: MOLT-4 leukemia
[29] = test system: SK-MEL-2 melanoma
[30] = test system: T-47D breast
[31] = test system: MDA-MB-231 breast
[32] = test system: MDA-MB-435
[33] = test system: HCT-116 colon
[34] = test system: A549 NSCLC
[35] = test system: SK-MEL-28 melanoma
[36] = test system: SK-OV-3 ovarian
[37] = test system: SK-MEL-5 melanoma
[38] = test system: RPMI-8226 leukemia
[39] = test system: HCT-15 colon
[40] = test system: OVCAR-8 ovarian
[41] = test system: CCRF-CEM leukemia
[42] = test system: NCI/ADR-RES ovarian
[43] = test system: DU-145 prostate
[44] = test system: SNB-19 CNS
[45] = test system: SNB-75 CNS
[46] = test system: HOP-62 NSCLC
[47] = test system: KM12 colon
[48] = test system: CAKI-1 renal
[49] = test system: HOP-92 NSCLC
[50] = test system: HCC-2998 colon
[51] = test system: NCI-H23 lung
[52] = test system: M14 melanoma
[53] = test system: OVCAR-3 ovarian
[54] = test system: EKVX NSCLC
[55] = test system: OVCAR-5 ovarian
[56] = test system: NCI-H522 lung
[57] = test system: MCF7 breast
[58] = test system: UACC-62 melanoma

Work on `CN(C)CCCNC(=O)c1cc(NC(=O)c2cc(NC(=O)c3ccc(C#Cc4ccccc4)cc3)cn2C)cn1C` yielded a GI50 [1] of 1.79 µM, a TGI [1] of 3.94 µM and a GI50 [2] of 2.65 µM. It also gave a TGI [2] of 4.9 µM, a GI50 [3] of 3.7 µM and a TGI [3] of 10 µM. The GI50 [4] was 2.56 µM, the TGI [4] was 6.64 µM and the GI50 [5] was 2.74 µM. The TGI [5] was 7.99 µM, the GI50 [6] was 3.17 µM and the TGI [6] was 5.82 µM. For the same compound, the GI50 [7] was 2.4 µM, the TGI [7] was 5.38 µM and the GI50 [8] was 2.28 µM. For the same compound, the TGI [8] was 4.79 µM, the GI50 [9] was 2.48 µM and the TGI [9] was 4.7 µM. The GI50 [10] was 2.62 µM, the TGI [10] was 7.14 µM and the GI50 [11] was 4.95 µM. The TGI [11] was greater than 15.3 µM, the GI50 [12] was 2.87 µM and the TGI [12] was 6.02 µM. It also gave a GI50 [13] of 2.56 µM, a TGI [13] of 5.65 µM and a GI50 [14] of 1.61 µM. For the same compound, the TGI [14] was 3.84 µM, the GI50 [15] was 2.53 µM and the TGI [15] was 4.97 µM. The GI50 [16] was 2.03 µM, the TGI [16] was 4.09 µM and the GI50 [17] was 2.34 µM. It also gave a TGI [17] of 4.43 µM, a GI50 [18] of 3.33 µM and a TGI [18] of 9.03 µM. For the same compound, the GI50 [19] was 2.45 µM, the TGI [19] was 5.93 µM and the GI50 [20] was 2.24 µM. For the same compound, the TGI [20] was 4.31 µM, the GI50 [21] was 2.11 µM and the TGI [21] was 4.22 µM. The GI50 [22] was 3 µM, the TGI [22] was 8.96 µM and the GI50 [23] was 4.21 µM. It also gave a TGI [23] greater than 15.3 µM, a GI50 [24] of 2.12 µM and a TGI [24] of 4.77 µM. The GI50 [25] was 2.74 µM, the TGI [25] was 6 µM and the GI50 [26] was 2.76 µM. The TGI [26] was 6.04 µM, the GI50 [27] was 3.08 µM and the TGI [27] was 12.2 µM. For the same compound, the GI50 [28] was 2.4 µM, the TGI [28] was 7.24 µM and the GI50 [29] was 2.91 µM. For the same compound, the TGI [29] was 5.98 µM, the GI50 [30] was 2.07 µM and the TGI [30] was 4.94 µM. The GI50 [31] was 2.84 µM, the TGI [31] was 5.03 µM and the GI50 [32] was 2.21 µM. The TGI [32] was 4.39 µM, the GI50 [33] was 2.1 µM and the TGI [33] was 4.46 µM. The GI50 [34] was 2.56 µM, the TGI [34] was 5.38 µM and the GI50 [35] was 2.4 µM. The TGI [35] was 4.47 µM, the GI50 [36] was 5.58 µM and the TGI [36] was greater than 15.3 µM. For the same compound, the GI50 [37] was 2.34 µM, the TGI [37] was 4.37 µM and the GI50 [38] was 1.76 µM. The TGI [38] was 5.89 µM, the GI50 [39] was 2.23 µM and the TGI [39] was 4.48 µM. The GI50 [40] was 2.57 µM, the TGI [40] was 6.63 µM and the GI50 [41] was 1.66 µM. It also gave a TGI [41] of 6.46 µM, a GI50 [42] of 2.85 µM and a TGI [42] of 7.02 µM. For the same compound, the GI50 [43] was 2.55 µM, the TGI [43] was 5.18 µM and the GI50 [44] was 2.84 µM. For the same compound, the TGI [44] was 5.01 µM, the GI50 [45] was 2.48 µM and the TGI [45] was greater than 15.3 µM. The GI50 [46] was 2.85 µM, the TGI [46] was 5.42 µM and the GI50 [47] was 2.93 µM. For the same compound, the TGI [47] was 6.81 µM, the GI50 [48] was 2.85 µM and the TGI [48] was 7.97 µM. The GI50 [49] was 0.611 µM, the TGI [49] was 3.47 µM and the GI50 [50] was 2.34 µM. For the same compound, the TGI [50] was 4.42 µM, the GI50 [51] was 2.76 µM and the TGI [51] was 5.37 µM. The GI50 [52] was 2.26 µM, the TGI [52] was 4.54 µM and the GI50 [53] was 1.83 µM. It also gave a TGI [53] of 4.13 µM, a GI50 [54] of 2.49 µM and a TGI [54] of 5.18 µM. The GI50 [55] was 3.17 µM, the TGI [55] was 7.43 µM and the GI50 [56] was 2.56 µM. For the same compound, the TGI [56] was 5.16 µM, the GI50 [57] was 0.58 µM and the TGI [57] was 2.38 µM. For the same compound, the GI50 [58] was 1.93 µM and the TGI [58] was 4.07 µM.
